Assay results: patent US20060246047A1, “Peptide wirh apoptosis-inhibiting activity” (priority 2003, published 2006)

Columns and labels:
HeLa cells [1] = assay: STS-induced apoptosis in Hela cells, modified TAT-ART peptides (Example 8); type: cell-based; details: 100, 300 or 1000 nM, 0.2 μM STS, 24 hours
Method: The modified TAT-ART1320 peptides used were TAT-ART1420 (SEQ ID NO: 25) and TAT-ART1320P13V (SEQ ID NO: 26), synthesized with a peptide synthesizer.
Hela cells (1×10^5 cells) were seeded in 12-well plates and incubated for 24 hours. Subsequently, cells were pre-treated for 1 hour by adding TAT-ART1320 or its modified peptide at a final concentration of 100, 300, or 1000 nM, followed by the addition of 0.2 μM STS and incubation for 24 hours. Cells without the addition of TAT-ART1320 or STS, together with cells without the addition of TAT-ART1320, were prepared as controls. Following incubation, cell death was evaluated by the trypan blue exclusion method.

Bax [2] = molecular target: T1, Bax (Homo sapiens, UniProt Q07812); assay: Apoptosis-suppressive activity, summary statements without a stated test; type: cell-based; set-up: expressed in transfected cells; host or cells: HEK 293T; details: summary statement
Bax [3] = molecular target: T1, Bax; assay: STS-induced mitochondrial translocation of Bax in COS7 cells, confocal microscopy; type: cell-based; set-up: expressed in transfected cells; details: 1000 nM pretreatment 1 hour, COS7 with pCI-myc-Bax
Method: It is considered that, in order for Bax to induce apoptosis, it is essential for Bax to localize to mitochondria. Thus, the effect of TAT-ARTI320 on STS-induced mitochondrial translocation of Bax was examined.
COS7 cells (4×10^4 cells) were seeded in 12-well plates and incubated for 24 hours and then transfected with 1 μg of the pCI-myc-Bax gene. Subsequently, after further incubation for 23 hours, cells were pretreated for 1 hour with 1000 nM TAT-ART1320. Cells without TAT-ART1320 pretreatment were also prepared as controls. Further, […] of STS and 100 nM MitoTracker Orange (manufactured by Molecular Probes) were added and, after one hour, cells were fixed with 3% formaldehyde solution. Cells without the addition of STS were also prepared as controls.

Bak = molecular target: T2, Bak (Homo sapiens, UniProt Q16611); assay: Apoptosis induced by overexpression of myc-Bak in HEK 293T cells, trypan blue exclusion; type: cell-based; details: 100, 300 or 1000 nM, 24 hours
T2 construct: expressed in transfected cells; host or cells: HEK 293T
T2 sequence (Q16611 1-211): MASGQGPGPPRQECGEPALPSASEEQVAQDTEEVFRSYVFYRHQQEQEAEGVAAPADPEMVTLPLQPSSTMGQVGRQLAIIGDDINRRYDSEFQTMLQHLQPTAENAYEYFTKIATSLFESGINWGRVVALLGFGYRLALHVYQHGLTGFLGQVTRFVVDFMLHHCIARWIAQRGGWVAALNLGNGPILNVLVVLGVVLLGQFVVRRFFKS
Method: (§1) HEK 293T cells (1×10^5 cells) were seeded in 12-well plates and incubated for 24 hours. Subsequently, myc, myc-Bax, or myc-Bak was overexpressed within cells by introducing pCI-myc, pCI-myc-Bax, or pCI-myc-Bakplasmid respectively into HEK 293 T cells. After incubation for 17 hours, TAT-ART1320 was added at a final concentration of 100, 300, or 1000 nM, followed by further incubation for 24 hours. Cells without the addition of TAT-ARTI320 were used as controls. Following incubation, cell death was evaluated by the trypan blue exclusion method.

HEK 293T cells = assay: STS-induced Bax-dependent apoptosis in HEK 293T cells, trypan blue exclusion; type: cell-based; details: 0.5 μM STS, 24 hours
Method: (§2) It is known that apoptosis induced by staurosporine (STS) is Bax-dependent. Thus, it was examined whether TAT-ART1320 can suppress STS-induced apoptosis.
(§3) HEK 293T cells or HeLa cells, at 5×10^4 cells each, were seeded in 12-well plates and incubated for 24 hours. Subsequently, cells were pre-treated by adding TAT-ART1320 at a final concentration of 100, 300, or 1000 nM, followed by further incubation for 24 hours. Then STS was added to HEK 293T cells and HeLa cells at 0.5 μM and 0.2 μM, respectively, followed by incubation for 24 hours. Cells without the addition of TAT-ART1320 or STS, together with cells without the addition of TAT-ART1320, were prepared as controls. Following incubation, cell death was evaluated by the trypan blue exclusion method.

HeLa cells [4] = assay: STS-induced Bax-dependent apoptosis in HeLa cells, trypan blue exclusion; type: cell-based; details: 0.2 μM STS, 24 hours
Method: as §2, §3

[5] = tested on: brain ischemia model gerbils; assay: Brain ischemia model, 4 min bilateral common carotid artery occlusion and reperfusion; type: in vivo, gerbil
Method: Next, to confirm the effect of the peptide according to the present invention on apoptosis-induced diseases, such as neurodegenerative diseases, using a model of brain ischemia induced by a 4 min occlusion of the bilateral common carotid arteries in gerbils the influence of TAT-ART1320 ([…]) on the neurological symptom scores after reperfusion and on delayed neuronal death in hippocampus four days after reperfusion.
Thirteen-week-old male gerbils (SPF, Japan SLC, Inc.) were kept over a week in a barrier system animal room with controlled temperature (23±2° C), humidity (55±15%), ventilation (at least 5 air changes/hour), and light (12 hour light period, 6:30 a.m. to 6:30 p.m.). The gerbils thus maintained, weighing 60 to 80 g, were used as test animals. Food and water were provided at libitum.
Under ether anesthesia, test animals underwent a midline skin incision in the neck to expose the bilateral internal carotid arteries (the ether anesthesia was stopped on exposure of the bilateral internal carotid arteries), which were occluded bilaterally with artery forceps, to induce brain ischemia. Reperfusion was initiated by removing the artery forceps 4 min after occlusion and the skin was sutured, immediately followed by administration of TAT-ART1320 or saline. Subsequently, test animals were warmed under an infrared lamp until their activity was recovered.
TAT-ART1320 was prepared for administration by dissolving 3 or 30 mg of TAT-ART1320 in 10 ml of saline. This solution was administered at a dose of 10 ml/kg BW. Immediately after reperfusion TAT-ART1320 was intravenously injected into the caudal vain of each animal at 3 mg/kg BW or 30 mg/kg BW, followed by another intravenous injection after 5 hours. (The animals (n=13) receiving TAT-ART1320 at 3 mg/kg BW and animals receiving TAT-ART1320 at 30 mg/kg BW were called the 3 mg/kg group and the 30 mg/kg group, respectively.) The next day, intravenous injection was switched to subcutaneous injection and the same doses of TAT-ART1320 were administered twice at intervals of 5 hours, followed by once-daily SC injection. Animals (n=13: control group) receiving only saline were used as controls.
Immediately after reperfusion and subsequent administration of TAT-ART1320 or saline, observation of symptoms of the central nervous system (disturbance of consciousness, convulsions, suppression of motor responses, blepharoptosis) was started. […]
The bilateral hippocampal regions were excised from the fixed brain and 4 μm paraffin sections (about 1.5 mm posterior from the bregma) were prepared from each hippocampus. […] Subsequently, the length of bilateral hippocampal CA1 regions was measured with an image analyzer (MacSCOPE). Further, the number of survived neurons in each section was counted under a microscope. […]

Bax [6] = molecular target: T1, Bax; assay: Apoptosis induced by overexpression of myc-Bax in HEK 293T cells, trypan blue exclusion; type: cell-based; set-up: expressed in transfected cells; host or cells: HEK 293T; details: 100, 300 or 1000 nM, 24 hours
Method: as §1

Bax [7] = molecular target: T1, Bax; assay: Bax-induced apoptosis in pCI-Bax-transfected HEK 293T cells with HTA1320 added, trypan blue exclusion; type: cell-based; set-up: expressed in transfected cells; host or cells: HEK 293T; details: survival after 40 hours
Method: It was examined whether or not HTAI320, prepared in Example 3, inhibits Bax-induced apoptosis-promoting activity. HEK 293T cells were plated at 1×10^5 cells per well on 12-well plastic dishes and incubated overnight. Subsequently, cells were transfected with pCI-Bax by lipofection using opti-MEM (manufactured by GibcoBRL) and Lipofectamine (manufactured by GibcoBRL). After five hours, the medium was changed and HTA1320 were added at various concentrations. Subsequently, the cell survival rate after 40 hours was evaluated by the trypan blue exclusion method. As a result, HTA1320 inhibited Bax-induced apoptosis-promoting activity.

T1 sequence (Q07812 whole entry): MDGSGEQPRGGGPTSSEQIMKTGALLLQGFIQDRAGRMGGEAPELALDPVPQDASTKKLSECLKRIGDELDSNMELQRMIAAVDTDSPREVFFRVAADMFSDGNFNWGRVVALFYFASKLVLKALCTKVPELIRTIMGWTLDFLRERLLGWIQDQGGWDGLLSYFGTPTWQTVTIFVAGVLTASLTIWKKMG

For “SEQ ID NO: 1: peptide from threonine in the 14th position to methionine in the 20th position of the ART sequence (TSSEQIM; Inventor Imoto, Masaya Inventor Tabe, Hirokazu Inventor Tashiro, Etsu Inventor OHMORI, Yusuke; listed as Homo sapiens)”, the “suppression of STS-induced apoptosis compared with TAT-ART1320 (SEQ ID NO: 2 peptide)” value (HeLa cells [1]) was “stronger suppressive activity” and the apoptosis-suppressive activity (Bax [2]) was “stronger apoptosis- suppressive activity than the peptide (SEQ ID NO: 2)”.

With “SEQ ID NO: 2: peptide from proline in the 13th position to methionine in the 20th position of the ART sequence (PTSSEQIM; listed as Homo sapiens)” the “STS-induced mitochondrial localization / translocation of Bax” value (Bax [3]) was “effect of suppressing SIS-induced mitochondrial translocation of Bax” and the apoptosis-suppressive activity (Bax [2]) was “strong apoptosis-suppressive activity”.

For “TAT-ART1320: HIV-TAT sequence linked to ART positions 13 to 20, synthesized with a peptide synthesizer (YGRKKRRQRRRPTSSEQIM; TAT-ART1320)”, the “inhibition of apoptosis induced by overexpression of Bak” value (Bak) was “cannot inhibit”, the “concentrations suppressing STS-induced apoptosis” value (HEK 293T cells) was 1 to 100 nM and the “concentrations suppressing STS-induced apoptosis” value (HeLa cells [4]) was 100 to 1000 nM. For the same molecule, the “change of neurological symptoms scores with dose” value ([5]; 3 mg/kg and 30 mg/kg groups) was “dose-dependent decrease”, the “number of survived neurons per unit length in hippocampal CA1” value ([5]; 30 mg/kg group, four days after reperfusion, control 15.4±5.2) was 74.5±23.1 and the neurological symptoms score ([5]; 30 mg/kg group, i.v. then s.c., control 8.2±1.4, P<0.05) was 2.8±0.6. The “neuronal death in hippocampal CA1” value ([5]; 3 and 30 mg/kg groups, four days after reperfusion) was “significantly suppresses neuronal death”, the “STS-induced mitochondrial localization / translocation of Bax” value (Bax [3]) was “Bax did not localize to mitochondria” and the “inhibition of apoptosis induced by overexpression of Bax” value (Bax [6]) was “inhibits”.

“TAT-ART1420: modified TAT-ART1320 peptide, ART positions 14 to 20, synthesized with a peptide synthesizer (YGRKKRRQRRRTSSEQIM; TAT-ART1420)” was tested, and the “suppression of STS-induced apoptosis compared with TAT-ART1320 (SEQ ID NO: 2 peptide)” value (HeLa cells [1]) was “equal to or greater than that of TAT-ART1320”.

In the case of VTSSEQIM (ART1320P13V) [SEQ ID NO: 7], the “suppression of STS-induced apoptosis compared with TAT-ART1320 (SEQ ID NO: 2 peptide)” value (HeLa cells [1]) is reported as “stronger suppressive activity”.

B1: HTA1320: E. coli-expressed peptide of ART positions 13 to 20 with HIV-Tat sequence and His sequence (protein)
chain: MRGSHHHHHHGMASMTGGQQMGRDLYDDDDKDRWIRPRDLQLVPWYGRKKRRQRRRPTSSEQIM
modifications: His-Tat-ART13/20(HTA1320)
With B1 the “apoptosis-suppressive activity at low concentrations versus high concentrations” value (Bax [7]; low concentrations) was “almost equivalent to that at high concentrations” and the “inhibition of Bax-induced apoptosis-promoting activity” value (Bax [7]; various concentrations) was “inhibited”.
